“And” between values parts separate entries of the source, which are not always exact repeats. Equal entries are not always repeated. Where two headings read alike, the source gives them in different places.
Experiments:
Test in all cases: cell-based
[1] = molecular target: T1, hNav1.7 (Homo sapiens, UniProt Q15858); assay type: cell-based; details: PatchXpress; * = at high concentrations compound would wash off slowly or not at all; read-out: PX hNav1.7 Tonic IC50
[2] = molecular target: hNav1.3 (Homo sapiens, UniProt Q9NY46); details: IonWorks Quattro; read-out: IC50 Nav1.3
[3] = molecular target: T2, hNav1.4 (Homo sapiens, UniProt P35499); details: for IC50: IonWorks Quattro, read-out: IC50 Nav1.4; for Nav1.4/Nav1.7: ratio of IonWorks Quattro IC50 values
[4] = molecular target: T1, hNav1.7; details: IonWorks Quattro; read-out: IC50 Nav1.7
[5] = molecular target: T3, hNav1.5 (Homo sapiens, UniProt Q14524); details: IonWorks Quattro; read-out: IC50 Nav1.5
[6] = molecular target: T2, hNav1.4; details: PatchXpress; * = at high concentrations compound would wash off slowly or not at all; read-out: PX hNav1.4 Tonic IC50
[7] = molecular target: T3, hNav1.5; details: for IC50: PatchXpress, * = at high concentrations compound would wash off slowly or not at all, read-out: PX hNav1.5 Tonic IC50

T3 sequence (Q14524 whole entry): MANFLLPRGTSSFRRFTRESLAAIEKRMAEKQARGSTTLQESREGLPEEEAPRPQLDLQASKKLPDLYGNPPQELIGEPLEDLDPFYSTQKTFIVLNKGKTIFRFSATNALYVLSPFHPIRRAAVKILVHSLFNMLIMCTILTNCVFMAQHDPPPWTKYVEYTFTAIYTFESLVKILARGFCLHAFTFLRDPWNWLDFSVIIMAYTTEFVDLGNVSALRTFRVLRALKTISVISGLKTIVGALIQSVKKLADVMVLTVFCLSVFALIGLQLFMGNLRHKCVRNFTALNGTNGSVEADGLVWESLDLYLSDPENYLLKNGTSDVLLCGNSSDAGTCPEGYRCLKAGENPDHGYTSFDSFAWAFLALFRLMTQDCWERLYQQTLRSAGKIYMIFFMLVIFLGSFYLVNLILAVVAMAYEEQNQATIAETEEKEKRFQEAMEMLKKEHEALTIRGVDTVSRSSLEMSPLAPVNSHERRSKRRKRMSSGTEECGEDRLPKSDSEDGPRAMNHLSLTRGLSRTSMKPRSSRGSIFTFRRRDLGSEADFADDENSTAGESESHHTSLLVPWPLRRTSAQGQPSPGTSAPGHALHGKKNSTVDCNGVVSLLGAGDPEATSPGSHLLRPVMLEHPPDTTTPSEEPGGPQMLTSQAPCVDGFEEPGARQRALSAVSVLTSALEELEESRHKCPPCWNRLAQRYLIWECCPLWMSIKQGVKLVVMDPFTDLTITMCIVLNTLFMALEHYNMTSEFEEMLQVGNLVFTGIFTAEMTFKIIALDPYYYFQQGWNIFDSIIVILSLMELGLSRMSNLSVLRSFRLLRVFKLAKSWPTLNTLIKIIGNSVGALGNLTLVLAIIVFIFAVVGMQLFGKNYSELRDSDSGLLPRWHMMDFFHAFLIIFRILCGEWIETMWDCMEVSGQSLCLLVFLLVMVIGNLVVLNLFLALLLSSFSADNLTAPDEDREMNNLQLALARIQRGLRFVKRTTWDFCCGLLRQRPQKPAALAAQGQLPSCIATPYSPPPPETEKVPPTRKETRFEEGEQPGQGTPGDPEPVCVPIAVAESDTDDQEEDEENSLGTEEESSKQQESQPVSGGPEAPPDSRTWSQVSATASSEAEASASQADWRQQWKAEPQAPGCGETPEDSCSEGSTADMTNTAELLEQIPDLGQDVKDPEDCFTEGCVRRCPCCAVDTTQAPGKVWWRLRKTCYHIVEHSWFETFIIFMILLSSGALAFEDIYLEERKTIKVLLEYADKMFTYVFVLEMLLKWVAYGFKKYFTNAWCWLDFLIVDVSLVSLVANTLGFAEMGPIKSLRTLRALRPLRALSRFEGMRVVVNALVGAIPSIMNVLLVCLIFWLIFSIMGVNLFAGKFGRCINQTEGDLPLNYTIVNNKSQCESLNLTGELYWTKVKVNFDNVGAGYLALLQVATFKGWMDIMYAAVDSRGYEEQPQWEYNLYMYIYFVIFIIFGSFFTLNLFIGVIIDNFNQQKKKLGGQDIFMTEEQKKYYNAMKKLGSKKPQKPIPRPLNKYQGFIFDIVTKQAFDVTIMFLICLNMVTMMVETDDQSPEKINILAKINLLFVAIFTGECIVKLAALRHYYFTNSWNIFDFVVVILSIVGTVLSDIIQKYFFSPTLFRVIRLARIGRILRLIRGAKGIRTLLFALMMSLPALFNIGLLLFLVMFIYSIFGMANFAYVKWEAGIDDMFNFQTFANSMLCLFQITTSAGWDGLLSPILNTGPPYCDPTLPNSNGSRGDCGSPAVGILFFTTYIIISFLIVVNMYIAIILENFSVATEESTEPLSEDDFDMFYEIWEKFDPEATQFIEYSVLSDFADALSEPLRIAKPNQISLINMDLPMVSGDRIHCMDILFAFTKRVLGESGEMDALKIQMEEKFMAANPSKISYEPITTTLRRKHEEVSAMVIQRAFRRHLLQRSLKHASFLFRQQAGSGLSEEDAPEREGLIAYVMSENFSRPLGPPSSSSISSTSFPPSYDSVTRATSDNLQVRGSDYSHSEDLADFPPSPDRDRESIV
T1 sequence (Q15858 whole entry): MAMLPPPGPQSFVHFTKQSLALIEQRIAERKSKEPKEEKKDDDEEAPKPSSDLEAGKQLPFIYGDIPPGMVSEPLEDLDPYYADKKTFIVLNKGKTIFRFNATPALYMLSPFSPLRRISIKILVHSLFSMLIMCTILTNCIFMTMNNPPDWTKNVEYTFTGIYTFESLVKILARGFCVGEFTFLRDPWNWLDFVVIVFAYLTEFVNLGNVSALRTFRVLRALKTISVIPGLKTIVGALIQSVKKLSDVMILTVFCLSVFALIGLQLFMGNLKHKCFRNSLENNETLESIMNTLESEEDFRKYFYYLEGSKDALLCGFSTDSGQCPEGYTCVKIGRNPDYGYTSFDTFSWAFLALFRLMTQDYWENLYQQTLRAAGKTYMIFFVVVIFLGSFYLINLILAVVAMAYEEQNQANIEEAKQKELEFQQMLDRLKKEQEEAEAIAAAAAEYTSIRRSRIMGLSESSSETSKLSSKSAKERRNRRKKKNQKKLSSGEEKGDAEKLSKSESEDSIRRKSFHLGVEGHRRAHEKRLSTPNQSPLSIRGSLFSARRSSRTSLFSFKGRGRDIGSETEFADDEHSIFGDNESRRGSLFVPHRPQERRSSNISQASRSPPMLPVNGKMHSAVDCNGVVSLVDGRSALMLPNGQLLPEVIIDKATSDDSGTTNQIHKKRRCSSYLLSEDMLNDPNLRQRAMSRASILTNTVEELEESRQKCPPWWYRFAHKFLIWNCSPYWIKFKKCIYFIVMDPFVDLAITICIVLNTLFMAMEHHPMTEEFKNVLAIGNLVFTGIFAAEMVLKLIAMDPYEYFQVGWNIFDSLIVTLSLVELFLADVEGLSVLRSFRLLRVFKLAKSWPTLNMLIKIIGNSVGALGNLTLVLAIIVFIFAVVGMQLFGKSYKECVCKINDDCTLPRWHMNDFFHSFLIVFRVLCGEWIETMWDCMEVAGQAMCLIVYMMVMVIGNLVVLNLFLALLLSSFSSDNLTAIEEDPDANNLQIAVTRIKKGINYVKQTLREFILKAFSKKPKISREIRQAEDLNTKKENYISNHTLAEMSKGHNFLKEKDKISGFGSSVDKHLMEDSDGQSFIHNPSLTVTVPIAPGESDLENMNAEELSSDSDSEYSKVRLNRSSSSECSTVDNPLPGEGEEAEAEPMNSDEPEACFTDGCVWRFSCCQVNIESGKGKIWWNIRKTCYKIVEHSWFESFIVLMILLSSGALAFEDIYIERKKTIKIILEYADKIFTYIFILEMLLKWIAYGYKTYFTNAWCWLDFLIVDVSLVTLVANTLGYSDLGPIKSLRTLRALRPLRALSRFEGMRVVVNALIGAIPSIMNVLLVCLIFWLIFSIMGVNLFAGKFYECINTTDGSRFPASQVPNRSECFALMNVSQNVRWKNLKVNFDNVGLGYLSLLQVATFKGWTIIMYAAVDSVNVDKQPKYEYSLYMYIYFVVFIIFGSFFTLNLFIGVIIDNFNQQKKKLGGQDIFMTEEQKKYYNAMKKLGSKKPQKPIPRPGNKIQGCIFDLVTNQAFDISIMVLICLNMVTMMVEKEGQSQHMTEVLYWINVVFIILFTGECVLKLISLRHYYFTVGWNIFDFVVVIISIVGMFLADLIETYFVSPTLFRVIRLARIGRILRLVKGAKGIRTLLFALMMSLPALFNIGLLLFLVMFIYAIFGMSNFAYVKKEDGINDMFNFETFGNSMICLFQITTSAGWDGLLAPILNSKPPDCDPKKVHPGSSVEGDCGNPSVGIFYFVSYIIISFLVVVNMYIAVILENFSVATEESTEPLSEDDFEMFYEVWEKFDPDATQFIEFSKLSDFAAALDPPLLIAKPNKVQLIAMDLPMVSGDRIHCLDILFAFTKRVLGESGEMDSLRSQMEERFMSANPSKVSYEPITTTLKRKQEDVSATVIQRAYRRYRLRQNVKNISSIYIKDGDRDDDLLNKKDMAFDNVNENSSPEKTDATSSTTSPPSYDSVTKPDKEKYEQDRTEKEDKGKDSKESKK

Row | Compound | IC50 [1] [µM] | IC50 [2] [µM] | IC50 [3] [µM] | IC50 [4] | IC50 [5] [µM] | IC50 [6] [µM] | IC50 [7] [µM] | Nav1.4/Nav1.7 [3] | Nav1.5/Nav1.7 ([7]; ratio of PX IC50 values)
1 | CCCC[C@@H]1NC(=O)[C@H](Cc2c[nH]c3ccccc23)NC(=O)[C@H](CCCCN)NC(=O)[C@H](CCC(N)=O)NC(=O)[C@@H](NC(=O)[C@@H](N)Cc2ccc(O)cc2)CSSC[C@@H]2NC(=O)[C@@H]3CSSC[C@@H](C(=O)N[C@@H](CCCNC(=N)N)C(=O)N[C@@H](CCCCN)C(=O)N[C@H](C(=O)N[C@H](C(N)=O)[C@@H](C)CC)[C@@H](C)CC)NC(=O)[C@H](Cc4c[nH]c5ccccc45)NC(=O)[C@H](CC(C)C)NC(=O)[C@H](CCCCN)NC(=O)[C@H](CSSC[C@H](NC(=O)[C@H]([C@@H](C)O)NC(=O)[C@H](Cc4c[nH]c5ccccc45)NC1=O)C(=O)N[C@@H](CC(=O)O)C(=O)N[C@@H](CO)C(=O)N[C@@H](CCCCN)C(=O)N[C@@H](CCCNC(=N)N)C(=O)N[C@@H](C)C(=O)N3)NC(=O)[C@H](CCCNC(=N)N)NC(=O)[C@H](CC(C)C)NC(=O)CNC(=O)[C@H](CCC(=O)O)NC2=O [compound 272] | 0.000586 | > 5 | > 5 | > 5 µM | > 5 |  |  |  | 
2 | CCCC[C@H](NC(=O)[C@H](Cc1ccc(O)cc1)NC(=O)[C@H](CCCCN)NC(=O)[C@H](CCCNC(=N)N)NC(=O)[C@@H]1CSSC[C@@H]2NC(=O)[C@H](C)NC(=O)[C@H](CCCNC(=N)N)NC(=O)[C@H](CCCCN)NC(=O)[C@H](CO)NC(=O)[C@H](CC(=O)O)NC(=O)[C@@H]3CSSC[C@H](NC(=O)[C@H](CCC(=O)O)NC(=O)[C@H](CC(C)C)NC(=O)CNC(=O)[C@H](CCC(=O)O)NC(=O)[C@H](CSSC[C@H](NC(=O)[C@@H](N)Cc4ccc(O)cc4)C(=O)N[C@@H](CCC(N)=O)C(=O)N[C@@H](CCCCN)C(=O)N[C@@H](Cc4c[nH]c5ccccc45)C(=O)N[C@@H](CCSC)C(=O)N[C@@H](Cc4c[nH]c5ccccc45)C(=O)N[C@@H]([C@@H](C)O)C(=O)N3)NC2=O)C(=O)N[C@@H](CCCCN)C(=O)N[C@@H](CC(C)C)C(=O)N[C@@H](Cc2c[nH]c3ccccc23)C(=O)N1)C(N)=O [compound 239] | 0.0062 | 4 | > 5 | 0.079 µM | > 5 | 0.786 | 9.77 |  | 
3 | CSCC[C@@H]1NC(=O)[C@H](Cc2c[nH]c3ccccc23)NC(=O)[C@H](CCCCN)NC(=O)[C@H](CCC(N)=O)NC(=O)[C@@H](NC(=O)[C@@H](N)Cc2ccc(O)cc2)CSSC[C@@H]2NC(=O)[C@@H]3CSSC[C@@H](C(=O)N[C@@H](CCCNC(=N)N)C(=O)N[C@@H](CCCCN)C(=O)N[C@@H](Cc4ccc(O)cc4)C(=O)N[C@@H](Cc4cccc5ccccc45)C(N)=O)NC(=O)[C@H](Cc4c[nH]c5ccccc45)NC(=O)[C@H](CC(C)C)NC(=O)[C@H](CCCCN)NC(=O)[C@H](CSSC[C@H](NC(=O)[C@H]([C@@H](C)O)NC(=O)[C@H](Cc4c[nH]c5ccccc45)NC1=O)C(=O)N[C@@H](CC(=O)O)C(=O)N[C@@H](CO)C(=O)N[C@@H](CCCCN)C(=O)N[C@@H](CCCNC(=N)N)C(=O)N[C@@H](C)C(=O)N3)NC(=O)[C@H](CCC(=O)O)NC(=O)[C@H](CC(C)C)NC(=O)CNC(=O)[C@H](CCC(=O)O)NC2=O [compound 232] | 0.0045 | 2.1 | 4.6 | 0.05 µM | 4.6 | 1.67 | 2.16 | 91 | 480
4 | CC[C@H](C)[C@H](NC(=O)[C@H](Cc1ccc(O)cc1)NC(=O)[C@H](CCCCN)NC(=O)[C@H](CCCNC(=N)N)NC(=O)[C@@H]1CSSC[C@@H]2NC(=O)[C@H](C)NC(=O)[C@H](CCCNC(=N)N)NC(=O)[C@H](CCCCN)NC(=O)[C@H](CO)NC(=O)[C@H](CC(=O)O)NC(=O)[C@@H]3CSSC[C@H](NC(=O)[C@H](CCC(=O)O)NC(=O)[C@H](CC(C)C)NC(=O)CNC(=O)[C@H](CCC(=O)O)NC(=O)[C@H](CSSC[C@H](NC(=O)[C@@H](N)Cc4ccc(O)cc4)C(=O)N[C@@H](CCC(N)=O)C(=O)N[C@@H](CCCCN)C(=O)N[C@@H](Cc4ccccc4)C(=O)N[C@@H](CCSC)C(=O)N[C@@H](Cc4c[nH]c5ccccc45)C(=O)N[C@@H]([C@@H](C)O)C(=O)N3)NC2=O)C(=O)N[C@@H](CCCCN)C(=O)N[C@@H](CC(C)C)C(=O)N[C@@H](Cc2c[nH]c3ccccc23)C(=O)N1)C(N)=O [compound 193] | 0.0046 | > 5 | > 5 | 0.16 µM and 0.23 µM | > 5 | 1 | > 1 |  | 
5 | CC[C@H](C)[C@H](NC(=O)[C@@H](NC(=O)[C@H](CCCCN)NC(=O)[C@H](CCCNC(=N)N)NC(=O)[C@@H]1CSSC[C@@H]2NC(=O)[C@H](C)NC(=O)[C@H](CCCNC(=N)N)NC(=O)[C@H](CCCCN)NC(=O)[C@H](CO)NC(=O)[C@H](CC(=O)O)NC(=O)[C@@H]3CSSC[C@H](NC(=O)[C@H](CCC(=O)O)NC(=O)[C@H](CC(C)C)NC(=O)CNC(=O)[C@H](CCC(=O)O)NC(=O)[C@H](CSSC[C@H](NC(=O)[C@@H](N)Cc4ccc(O)cc4)C(=O)N[C@@H](CCC(N)=O)C(=O)N[C@@H](CCCCN)C(=O)N[C@@H](Cc4c[nH]c5ccccc45)C(=O)N[C@@H](CCSC)C(=O)N[C@@H](Cc4c[nH]c5ccccc45)C(=O)N[C@@H]([C@@H](C)O)C(=O)N3)NC2=O)C(=O)N[C@@H](CCCCN)C(=O)N[C@@H](CC(C)C)C(=O)N[C@@H](Cc2c[nH]c3ccccc23)C(=O)N1)[C@@H](C)CC)C(N)=O [compound 63] | 0.007 | > 5 | > 5 | 0.36 µM | 9.8 |  | 9.33 | 14 | 
6 | CC[C@H](C)[C@H](NC(=O)[C@H](Cc1ccc(O)cc1)NC(=O)[C@H](CCCCN)NC(=O)[C@H](CCCNC(=N)N)NC(=O)[C@@H]1CSSC[C@@H]2NC(=O)[C@H](C)NC(=O)[C@H](CCCNC(=N)N)NC(=O)[C@H](CCCCN)NC(=O)[C@H](CO)NC(=O)[C@H](CC(=O)O)NC(=O)[C@@H]3CSSC[C@H](NC(=O)[C@H](CCC(=O)O)NC(=O)[C@H](CC(C)C)NC(=O)CNC(=O)[C@H](CCC(=O)O)NC(=O)[C@H](CSSC[C@H](NC(=O)[C@@H](N)Cc4ccc(O)cc4)C(=O)N[C@@H](CCC(N)=O)C(=O)N[C@@H](CCCCN)C(=O)N[C@@H](CCC(=O)O)C(=O)N[C@@H](CCSC)C(=O)N[C@@H](Cc4c[nH]c5ccccc45)C(=O)N[C@@H]([C@@H](C)O)C(=O)N3)NC2=O)C(=O)N[C@@H](CCCCN)C(=O)N[C@@H](CC(C)C)C(=O)N[C@@H](Cc2c[nH]c3ccccc23)C(=O)N1)C(N)=O [compound 203] |  | > 7 | > 7 | > 7 µM | > 7 |  |  |  | 
7 | CC[C@H](C)[C@H](NC(=O)[C@H](Cc1ccc(O)cc1)NC(=O)[C@H](CCCCN)NC(=O)[C@H](CCCNC(=N)N)NC(=O)[C@@H]1CSSC[C@@H]2NC(=O)[C@H](C)NC(=O)[C@H](CCCNC(=N)N)NC(=O)[C@H](CCCCN)NC(=O)[C@H](CO)NC(=O)[C@H](CC(=O)O)NC(=O)[C@@H]3CSSC[C@H](NC(=O)[C@H](CCC(=O)O)NC(=O)[C@H](CC(C)C)NC(=O)CNC(=O)[C@H](CCC(=O)O)NC(=O)[C@H](CSSC[C@H](NC(=O)[C@@H](N)Cc4ccc(O)cc4)C(=O)N[C@@H](CCC(N)=O)C(=O)N[C@@H](CCCCN)C(=O)N[C@@H](CCCNC(N)=O)C(=O)N[C@@H](CCSC)C(=O)N[C@@H](Cc4c[nH]c5ccccc45)C(=O)N[C@@H]([C@@H](C)O)C(=O)N3)NC2=O)C(=O)N[C@@H](CCCCN)C(=O)N[C@@H](CC(C)C)C(=O)N[C@@H](Cc2c[nH]c3ccccc23)C(=O)N1)C(N)=O [compound 199] |  | > 5 | > 5 | > 5 µM | > 5 |  |  |  | 
8 | CC[C@H](C)[C@H](NC(=O)[C@H](Cc1ccc(O)cc1)NC(=O)[C@H](CCCCN)NC(=O)[C@H](CCCNC(=N)N)NC(=O)[C@@H]1CSSC[C@@H]2NC(=O)[C@H](C)NC(=O)[C@H](CCCNC(=N)N)NC(=O)[C@H](CCCCN)NC(=O)[C@H](CO)NC(=O)[C@H](CC(=O)O)NC(=O)[C@@H]3CSSC[C@H](NC(=O)[C@H](CCC(=O)O)NC(=O)[C@H](CC(C)C)NC(=O)CNC(=O)[C@H](CCC(=O)O)NC(=O)[C@H](CSSC[C@H](NC(=O)[C@@H](N)Cc4ccc(O)cc4)C(=O)N[C@@H](CCC(N)=O)C(=O)N[C@@H](CCCCN)C(=O)N[C@@H](CCCCN)C(=O)N[C@@H](CCSC)C(=O)N[C@@H](Cc4c[nH]c5ccccc45)C(=O)N[C@@H]([C@@H](C)O)C(=O)N3)NC2=O)C(=O)N[C@@H](CCCCN)C(=O)N[C@@H](CC(C)C)C(=O)N[C@@H](Cc2c[nH]c3ccccc23)C(=O)N1)C(N)=O [compound 200] |  | > 5 | > 5 | > 5 µM | > 5 |  |  |  | 

Source: US9636418B2 (priority 2013, dated 2017)
